Patent US7214671B2, “Use of 2-methylene-19-nor-20(S)-1α,25-dihydroxyvitamin D3 for the prophylaxis of bone diseases” (Wisconsin Alumni Research Foundation, priority 2004, dated 2007)
“And” between values parts separate entries of the source, which are not always exact repeats. Identical values can stand only once. “Also recorded” adds a separate entry of the source.

Experiments:
[1] = test system: intestinal calcium transport; test: Intestinal calcium transport in vitamin D-deficient rats (everted gut sac); format: in vivo, rat; conditions: oral gavage 7 consecutive days, FIG. 2
Procedure: Values represent means±standard error.
(§1) The intestinal calcium transport and bone mobilization studies were carried out as described by Sicinski et al. (J. Med. Chem. 41, 4662–4674, 1998) and Suda et al. (J. Nutr. 100, 1049–1052, 1970).

[2] = molecular target: T1, full length recombinant rat receptor (nuclear vitamin D receptor) (Rattus norvegicus, UniProt P13053); test: Competitive binding of [3H]-1α,25-(OH)2-D3 to full length recombinant rat vitamin D receptor; conditions: FIG. 1
T1 construct: the full length recombinant rat receptor
T1 sequence (P13053 1-423): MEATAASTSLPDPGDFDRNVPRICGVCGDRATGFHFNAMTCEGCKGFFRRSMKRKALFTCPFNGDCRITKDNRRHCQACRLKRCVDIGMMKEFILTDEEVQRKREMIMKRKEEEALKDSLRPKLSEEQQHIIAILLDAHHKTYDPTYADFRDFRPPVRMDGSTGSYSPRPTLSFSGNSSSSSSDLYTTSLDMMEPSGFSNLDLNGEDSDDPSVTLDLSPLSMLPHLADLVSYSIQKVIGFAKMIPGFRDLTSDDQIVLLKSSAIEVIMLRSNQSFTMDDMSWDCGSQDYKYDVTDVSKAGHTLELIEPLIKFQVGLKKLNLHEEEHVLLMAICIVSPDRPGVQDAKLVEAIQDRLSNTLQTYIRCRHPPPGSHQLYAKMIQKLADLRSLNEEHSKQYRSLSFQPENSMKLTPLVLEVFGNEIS

[3] = test system: ovariectomized old female rats; test: Treatment of ovariectomized old female rats (bone mass, serum calcium, femur ash); format: in vivo, rat; conditions: doses of Table 1
Text: Values in the figure are mean±standard error.

[4] = test system: normal adult female Sprague-Dawley rats; test: Building bone mass in normal adult female rats (BMD, body weight, serum calcium); format: in vivo, rat; conditions: 2.5 ng/kg/d oral
Procedure: All 7-month old, nulliparous female, Sprague-Dawley rats (Harlan Sprague-Dawley, Madison, Wis.) were sham-operated at 7 months of age.
Beginning with arrival in the facility, rats were fed a purified rodent diet (“Diet 11”) prepared in-house (Suda et al, 1970, J. Nutr., 100:1049–1052) and containing 0.47% calcium, 0.3% phosphorus and 1.6 IU vitamin D3/g. To maintain consistent body weights (monitored weekly), rats were fed a total of 150 g diet/week, i.e. 21.5 g/day/rat.
Rats were dosed daily beginning 5–6 weeks post-surgery. Neobee oil (vehicle) or 2MD were delivered to the back of the tongue in 100 μL. The dosing solution concentrations were adjusted monthly based on group-average body weights.
At predose and at 1, 2, 4, 6, 10, 11, 18 and 25 weeks after dose, blood was collected 24 hr. after the most recent dose from the tail artery of ether-anesthetized rats. Serum was diluted in 0.1% lanthum chloride and the concentration of calcium determined by atomic absorption spectrometry. The values shown are averages for all rats, and include standard errors.
Both total body BMD and appendicular (right distal and proximal femur) BMD were determined by dual-energy X-ray absorptiometry (Lunar DPXα-Madison, Wis.; Small Animal Software-version 1.0e) at weeks 0, 8, 16, and 24. Appendicular BMD was performed as described (Haffa et al, 2000, J. Bone Min. Res. 15:872). The values shown are averages for all rats and include standard errors.

Rhesus monkeys = test: Serum calcium after single oral bolus dose in Rhesus monkeys; format: in vivo, Rhesus monkey; set-up: dose or concentration left out as unconfirmed; conditions: 24 hours after dose, FIG. 10
Procedure: FIG. 10 is a line graph illustrating the blood serum calcium levels 24 hours after dose in Rhesus monkeys given a single oral bolus dose of 2-methylene-19-nor-20(S)-1α,25-dihydroxyvitamin D3 (2MD) at varying concentrations;
These and other tests indicate that primates will tolerate 2MD extremely well which may give a very large window between efficacy and the danger of hypercalcemia in man.

[5] = test system: HL-60 promyelocytic cells; test: HL-60 cell differentiation into monocytes; format: cell-based; conditions: FIG. 5
Procedure: The differentiation of HL-60 promyelocytic cells into monocytes was determined as described by Ostrem et al. (J. Biol. Chem. 262, 14164–14171, 1987).

[6] = test system: mobilization of bone calcium; test: Bone calcium mobilization (serum calcium) in vitamin D-deficient rats; format: in vivo, rat; conditions: serum calcium 24 hours after last dose, zero calcium diet, FIG. 3
Procedure: Blood serum calcium was measured 24 hours following the last dose in the rats as described in FIG. 2. Values represent mean±standard error.
as §1
The in vivo tests of increasing serum calcium of rats on a zero calcium diet provides an insight to […] or bone activity of 2MD.

change in serum calcium at dosage levels that elevated bone mass [3]: no change in serum calcium | elevation of serum calcium concentration (Rhesus monkeys): does not cause significant elevation
SMILES: C=C1[C@H](O)CC(=C/C=C2\CCC[C@]3(C)[C@@H]([C@@H](C)CCCC(C)(C)O)CC[C@@H]23)C[C@H]1O [2MD, 2-methylene-19-nor-20(S)-1α,25-dihydroxyvitamin D3]
intestinal calcium transport activity compared with 1,25(OH)2D3 [1]: activity similar to that of 1,25-dihydroxyvitamin D3; also recorded: approximately equal | binding to the receptor as compared to the standard 1,25-(OH)2D3 [2]: bound equally well; also recorded: about as active as 1,25(OH)2D3 | increase in cancellous bone BMD ([4]; 24 weeks, FIG. 12A): 14% | increase in cortical bone ([4]; FIG. 12B): 6% | change in body weight ([4]; FIG. 13A): absence of any change | change in serum calcium ([4]; FIG. 13B): absence of any change | total body BMD versus vehicle control ([4]; from 8 to 24 weeks, FIG. 11): increased above vehicle-control animals | potency relative to 1,25(OH)2D3 on HL-60 cell differentiation [5]: 10–50 times | potency relative to 1,25(OH)2D3 in mobilization of bone calcium [6]: 100 times and 80–100 times
